Patent US20250186313A1, “SCALP OR HAIR CARE COMPOSITION COMPRISING NANO-CARBON STRUCTURE” (INBCT Co., Ltd., priority 2022, published 2025)

Columns and labels:
[1] = system: artificial skin model KeraSkin; experiment: Skin irritation test using artificial skin model KeraSkin (MTT); conditions: negative control (DPBS) = 100%, nano-carbon structure at 0.1 wt % (1 mg/mL)
Procedure: The inventors of the present invention evaluated the skin irritation of nano-carbon structures using the artificial skin model KeraSkin.
Specifically, the inventors of the present invention attempted to predict the possibility of skin irritation by measuring the damage to skin cells that appear while penetrating the stratum corneum of KeraSkin after sample treatment. This experiment used MTT, which is a reagent for measuring the cell viability of test materials, and was performed in compliance with the Cosmetic Risk Assessment Guidelines (Ministry of Food and Drug Safety, 2013) and Cosmetic Toxicity Test Animal Alternative Test Method Guideline V: Skin Irritation Test Method Using a Human Skin Model (Ministry of Food and Drug Safety, 2014).

[2] = system: artificial skin model KeraSkin; experiment: Skin barrier function improvement in SDS-damaged KeraSkin (TEER, TEWL, H&E, immunohistochemistry); type: cell-based, human; conditions: KeraSkin damaged with 2% SDS, 10 μM retinoic acid or 0.01 wt % NGO
Procedure: After treating the surface of KeraSkin with SDS (sodium dodecyl sulfate), which is an anionic surfactant, to weaken the skin's natural barrier function, a positive control material (10 μM retinoic acid) and a test material (0.01 wt % NGO) were added to the surface for 48 days. In order to evaluate the degree of improvement in the skin barrier function weakened by SDS by 48-hour application treatment, electrical resistance in epithelial tissue was measured by using the Millipore ERS-2 (Millipore, USA) system, and transepidermal water loss was measured by using the GPSKIN BARRIER PRO-II system, and histopathology was performed on four types of skin barrier markers through immunochemical staining.
The epithelial cell layer has developed tight junctions, which are one of the forms of bonding between cells. These tight junctions form physical and chemical barriers, and the strength and integrity of these barriers can be assessed through the degree of electrical resistance across cell layers, which are called “transepithelial electrical resistance (TEER).” As the barrier function is excellent, the transepithelial electrical resistance value increases.
Transdermal moisture is an essential element for the skin to perform its barrier function normally, and when “transepidermal water loss (TEWL)” increases, the enzyme function required for normal exfoliation is damaged, and it is not possible to normally perform the skin barrier functions. Therefore, transepidermal water loss is used as an important physiological indicator during the damage and recovery process of the skin barrier.

[3] = system: artificial skin model KeraSkin; experiment: Skin corrosion test using artificial skin model KeraSkin (MTT); type: cell-based, human; conditions: negative control (deionized water) = 100%, nano-carbon structure at 0.1 wt % (1 mg/mL)
Text: The inventors of the present invention evaluated the skin corrosion properties of nano-carbon structures by using the artificial skin model […] is an artificial skin model that reproduces the skin's epithelium using human-derived skin keratinocytes and is manufactured to be similar to real skin in terms of morphology, microstructure and biomarker expression.

CCCCCCCCCCCCOS(=O)(=O)[O-].[Na+] [5% SDS, sodium dodecyl sulfate]
cell viability [1]: 1.6%

CC1=C(/C=C/C(C)=C/C=C/C(C)=C/C(=O)O)C(C)(C)CCC1 [retinoic acid]
increase of transepithelial electrical resistance compared to the barrier damaged group [2]: 16.1% | reduction of transepidermal water loss compared to the barrier damaged group [2]: 10.8% | transepithelial electrical resistance (TEER) ([2]; 48-hour application, normal 1726.8±85.3, damaged 69.2±2.1): 347.0±15.7 Ω·cm^2 | transepidermal water loss (TEWL) rate compared to the negative control group ([2]; damaged group 133.7±3.2%): 122.9±6.5%

[K+].[OH-] [8N KOH, Potassium hydroxide]
cell viability ([3]; applied for 3 minutes): 1.6% | cell viability ([3]; applied for 1 hour): 0.6%
